The text below walks through data of US20260200897A1, “4-((5-(3-(4-(PYRIDIN-2-YL)CYCLOPENTYL)-1H-PYRAZOL-3-YL)AMINO)-BENZENESULFONAMIDE DERIVATIVES AND SIMILAR COMPOUNDS AS CDK INHIBITORS FOR THE TREATMENT OF CANCER” (BeOne Medicines I GmbH, priority 2023, published 2026).

For orientation: IC50 means the concentration needed to halve the response being measured.

One assay has as its target CDK2/Cyclin E1 (Homo sapiens, UniProt P24941). Put plainly: CDK2/Cyclin E1 TR-FRET biochemical assay, 1 mM ATP. The conditions noted are these: 0.15 μM Rb (Ser780)-biotin substrate, 90 min reaction, Table 2. The procedure: (§1) Compounds disclosed herein were tested for inhibition of CDK2/Cyclin E1 or CDK1/Cyclin B kinase in an assay based on the time-resolved fluorescence-resonance energy transfer (TR-FRET) methodology. The assay was carried out in 384-well low volume black plates in a reaction mixture containing CDK2/Cyclin E1 or CDK1/Cyclin B1, 1 mM ATP for CDK2/Cyclin E1 and CDK1/Cyclin B1, 0.15 μM Rb (Ser780)-biotin substrate and 0-10 μM compound in buffer containing 50 mM HEPES pH7.0, 0.02% NaN3, 0.01% BSA, 0.1 mM Orthovanadate, 50 mM MgCl2, 1 mM DTT and 0.005% Tween-20. The kinase was incubated with compound for 60 minutes at room temperature and the reaction was initiated by the addition of ATP and Rb (Ser780)-biotin substrate. After reaction at room temperature for 90 minutes, an equal volume of stop/detection solution was added according to the manufacture's instruction (Cisbio Bioassays). The stop/detection solution contained Streptavidin-XL665 and Anti-pRb (Ser780) mAb-Eu Cryptate in Detection buffer (Cisbio Bioassays). Plates were incubated at room temperature for 60 minutes, and the TR-FRET signals (ex337 nm, em665 nm/620 nm) were recorded on a PHERAstar FSX plate reader (BMG Labtech). The inhibition percentage of CDK2/Cyclin E1 or CDK1/Cyclin B1 kinase activity in presence of increasing concentrations of compounds was calculated based on the ratio of fluorescence at 665 nm to that at 620 nm. The IC50 for each compound was derived from fitting the data to the four-parameter logistic equation by Dotmatics.
On the technique in general: TR-FRET usually uses a lanthanide donor and a delayed reading to cut background.

The target of another assay is CDK1/Cyclin B1 (Homo sapiens, UniProt P06493). Briefly: CDK1/Cyclin B1 TR-FRET biochemical assay, 1 mM ATP. The conditions noted are these: 0.15 μM Rb (Ser780)-biotin substrate, 90 min reaction, Table 2. The procedure:
as §1

Chain of CDK1/Cyclin B1 (P06493 whole entry): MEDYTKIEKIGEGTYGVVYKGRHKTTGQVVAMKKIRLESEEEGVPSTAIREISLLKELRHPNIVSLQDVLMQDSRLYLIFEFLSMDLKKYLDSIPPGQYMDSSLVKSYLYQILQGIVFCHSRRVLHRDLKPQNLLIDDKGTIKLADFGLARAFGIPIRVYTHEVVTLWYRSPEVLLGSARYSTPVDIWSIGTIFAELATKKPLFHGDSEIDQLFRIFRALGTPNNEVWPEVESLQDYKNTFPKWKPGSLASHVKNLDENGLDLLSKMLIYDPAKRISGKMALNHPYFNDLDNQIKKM
Chain of CDK1/Cyclin B1 (P14635 whole entry partner): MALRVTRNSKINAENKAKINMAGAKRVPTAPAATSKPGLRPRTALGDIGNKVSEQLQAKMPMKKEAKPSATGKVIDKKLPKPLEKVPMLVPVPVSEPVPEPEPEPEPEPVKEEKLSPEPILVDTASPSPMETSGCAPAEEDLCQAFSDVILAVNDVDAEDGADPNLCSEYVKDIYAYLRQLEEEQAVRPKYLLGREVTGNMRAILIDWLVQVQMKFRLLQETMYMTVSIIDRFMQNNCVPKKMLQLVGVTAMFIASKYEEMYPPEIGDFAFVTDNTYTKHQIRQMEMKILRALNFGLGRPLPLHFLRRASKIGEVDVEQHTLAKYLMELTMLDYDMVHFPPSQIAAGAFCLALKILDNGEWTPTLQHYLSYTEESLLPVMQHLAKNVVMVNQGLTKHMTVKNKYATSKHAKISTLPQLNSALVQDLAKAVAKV

With `CC(C)(C)c1cnc(C2CCC(c3cc(Nc4ccc(S(N)(=O)=O)cc4F)n[nH]3)C2)o1` (single isomer, unassigned) [Example 6d, 4-((5-(3-(5-(tert-butyl)oxazol-2-yl)cyclopentyl)-1H-pyrazol-3-yl)amino)-3-fluorobenzenesulfonamide], the figures for the half-inhibitory concentration (IC50) on CDK2/Cyclin E1 and against CDK1/Cyclin B1 were 503 nM and greater than 10000 nM, respectively.
On the same counts, the results for `CC(C)(C)c1cnc(C2CCC(c3cc(Nc4cc5c(cc4F)S(=O)(=O)NC5)n[nH]3)C2)o1` (single isomer, unassigned) [Example 17a, 5-((5-(3-(5-(tert-butyl)oxazol-2-yl)cyclopentyl)-1H-pyrazol-3-yl)amino)-6-fluoro-2,3-dihydrobenzo[d]isothiazole 1,1-dioxide] are 3.9 nM and 2090 nM.
With `CC(C)(C)c1cnc(C2CCC(c3cc(Nc4cc5c(cc4F)S(=O)(=O)NC5)n[nH]3)C2)o1` (single isomer, unassigned) [Example 17b, 5-((5-(3-(5-(tert-butyl)oxazol-2-yl)cyclopentyl)-1H-pyrazol-3-yl)amino)-6-fluoro-2,3-dihydrobenzo[d]isothiazole 1,1-dioxide], the half-inhibitory concentration (IC50) at CDK2/Cyclin E1 was 7710 nM; against CDK1/Cyclin B1, greater than 10000 nM.
For the compound `CC(C)(C)c1cnc(C2CCC(c3cc(Nc4cc5c(cc4F)S(=O)(=O)NC5)n[nH]3)C2)o1` (single isomer, unassigned) [Example 17c, 5-((5-(3-(5-(tert-butyl)oxazol-2-yl)cyclopentyl)-1H-pyrazol-3-yl)amino)-6-fluoro-2,3-dihydrobenzo[d]isothiazole 1,1-dioxide], the figures for the IC50 against CDK2/Cyclin E1 and at CDK1/Cyclin B1 were 102 nM and greater than 10000 nM, respectively.
Consider `CC(C)(C)c1cnc(C2CCC(c3cc(Nc4cc5c(cc4F)S(=O)(=O)NC5)n[nH]3)C2)o1` (single isomer, unassigned) [Example 17d, 5-((5-(3-(5-(tert-butyl)oxazol-2-yl)cyclopentyl)-1H-pyrazol-3-yl)amino)-6-fluoro-2,3-dihydrobenzo[d]isothiazole 1,1-dioxide], for which the half-inhibitory concentration (IC50) at CDK2/Cyclin E1 was 2870 nM; at CDK1/Cyclin B1 it was greater than 10000 nM.
On the same counts, the results for `CC(C)c1cnc(C2CCC(c3cc(Nc4ccc5c(c4F)CNS5(=O)=O)n[nH]3)C2)o1` (single isomer, unassigned) [Example 109a, 4-fluoro-5-((5-(3-(5-isopropyloxazol-2-yl)cyclopentyl)-1H-pyrazol-3-yl)amino)-2,3-dihydrobenzo[d]isothiazole 1,1-dioxide] are 8.6 nM and 2870 nM.
As to `CC(C)c1cnc(C2CCC(c3cc(Nc4ccc5c(c4F)CNS5(=O)=O)n[nH]3)C2)o1` (single isomer, unassigned) [Example 109b, 4-fluoro-5-((5-(3-(5-isopropyloxazol-2-yl)cyclopentyl)-1H-pyrazol-3-yl)amino)-2,3-dihydrobenzo[d]isothiazole 1,1-dioxide], the half-inhibitory concentration (IC50) is 172 nM against CDK2/Cyclin E1 and greater than 10000 nM on CDK1/Cyclin B1.
Turning to `CC(C)c1cnc(C2CCC(c3cc(Nc4ccc5c(c4F)CNS5(=O)=O)n[nH]3)C2)o1` (single isomer, unassigned) [Example 109c, 4-fluoro-5-((5-(3-(5-isopropyloxazol-2-yl)cyclopentyl)-1H-pyrazol-3-yl)amino)-2,3-dihydrobenzo[d]isothiazole 1,1-dioxide], the IC50 against CDK2/Cyclin E1 is 1810 nM; on CDK1/Cyclin B1 it was greater than 10000 nM.
Taken in the same sequence, the figures for `CC(C)c1cnc(C2CCC(c3cc(Nc4ccc5c(c4F)CNS5(=O)=O)n[nH]3)C2)o1` (single isomer, unassigned) [Example 109d, 4-fluoro-5-((5-(3-(5-isopropyloxazol-2-yl)cyclopentyl)-1H-pyrazol-3-yl)amino)-2,3-dihydrobenzo[d]isothiazole 1,1-dioxide] were 158 nM and greater than 10000 nM.
Take `CC(C)c1cnc(C2CCC(c3cc(Nc4ccc5c(c4)CS(=O)(=O)N5)n[nH]3)C2)o1` (single isomer, unassigned) [Example 138a, cis-5-((5-(3-(5-isopropyloxazol-2-yl)cyclopentyl)-1H-pyrazol-3-yl)amino)-1,3-dihydrobenzo[c]isothiazole 2,2-dioxide]: the IC50 at CDK2/Cyclin E1 came out at 1.8 nM; at CDK1/Cyclin B1, 160 nM.
Take `CC(C)c1cnc(C2CCC(c3cc(Nc4ccc5c(c4)CS(=O)(=O)N5)n[nH]3)C2)o1` (single isomer, unassigned) [Example 138b, cis-5-((5-(3-(5-isopropyloxazol-2-yl)cyclopentyl)-1H-pyrazol-3-yl)amino)-1,3-dihydrobenzo[c]isothiazole 2,2-dioxide]: the IC50 came out at 12 nM at CDK2/Cyclin E1 and 2420 nM against CDK1/Cyclin B1.
Taken in the same sequence, the figures for `CC(C)c1cnc(C2CCC(c3cc(Nc4ccc5c(c4F)CS(=O)(=O)N5)n[nH]3)C2)o1` (single isomer, unassigned) [Example 152a, cis-4-fluoro-5-((5-(3-(5-isopropyloxazol-2-yl)cyclopentyl)-1H-pyrazol-3-yl)amino)-1,3-dihydrobenzo[c]isothiazole 2,2-dioxide] were 2.8 nM and 238 nM.
Take `CC(C)c1cnc(C2CCC(c3cc(Nc4ccc5c(c4F)CS(=O)(=O)N5)n[nH]3)C2)o1` (single isomer, unassigned) [Example 152b, cis-4-fluoro-5-((5-(3-(5-isopropyloxazol-2-yl)cyclopentyl)-1H-pyrazol-3-yl)amino)-1,3-dihydrobenzo[c]isothiazole 2,2-dioxide]: the half-maximal inhibitory concentration (IC50) against CDK2/Cyclin E1 came out at 19 nM; at CDK1/Cyclin B1 it was 4580 nM.
Take `CC(C)(C)c1cnc(C2CCC(c3cc(Nc4ccc5c(c4)CN=S5(C)=O)n[nH]3)C2)o1` (single isomer, unassigned) [Example 169a, 5-((5-(3-(5-(tert-butyl)oxazol-2-yl)cyclopentyl)-1H-pyrazol-3-yl)amino)-1-methyl-3H-1λ^4-benzo[d]isothiazole 1-oxide]: the IC50 came out at 0.6 nM against CDK2/Cyclin E1 and 189 nM at CDK1/Cyclin B1.
Turning to `CC(C)(C)c1cnc(C2CCC(c3cc(Nc4ccc5c(c4)CN=S5(C)=O)n[nH]3)C2)o1` (single isomer, unassigned) [Example 169b, 5-((5-(3-(5-(tert-butyl)oxazol-2-yl)cyclopentyl)-1H-pyrazol-3-yl)amino)-1-methyl-3H-1λ^4-benzo[d]isothiazole 1-oxide], the half-inhibitory concentration (IC50) against CDK2/Cyclin E1 stood at 21 nM; against CDK1/Cyclin B1, 2350 nM.
On to `CC(C)(C)c1cnc(C2CCC(c3cc(Nc4ccc5c(c4)CN=S5(C)=O)n[nH]3)C2)o1` (single isomer, unassigned) [Example 169c, 5-((5-(3-(5-(tert-butyl)oxazol-2-yl)cyclopentyl)-1H-pyrazol-3-yl)amino)-1-methyl-3H-1λ^4-benzo[d]isothiazole 1-oxide], for which the IC50 against CDK2/Cyclin E1 was 57 nM; on CDK1/Cyclin B1, 6710 nM.
For `CC(C)(C)c1cnc(C2CCC(c3cc(Nc4ccc5c(c4)CN=S5(C)=O)n[nH]3)C2)o1` (single isomer, unassigned) [Example 169d, 5-((5-(3-(5-(tert-butyl)oxazol-2-yl)cyclopentyl)-1H-pyrazol-3-yl)amino)-1-methyl-3H-1λ^4-benzo[d]isothiazole 1-oxide], the half-inhibitory concentration (IC50) at CDK2/Cyclin E1 is 173 nM; at CDK1/Cyclin B1 it was greater than 10000 nM.
In the case of `CC(C)(C)c1ccnc(C2CCC(c3cc(Nc4ccc(S(N)(=O)=O)cc4F)n[nH]3)C2)c1` (stereo not shown) [Example 1, 4-((5-(3-(4-(tert-butyl)pyridin-2-yl)cyclopentyl)-1H-pyrazol-3-yl)amino)-3-fluorobenzenesulfonamide], the figures for the IC50 on CDK2/Cyclin E1 and against CDK1/Cyclin B1 were 100 nM and greater than 10000 nM, respectively.
For the compound `Cc1cc(C(C)(C)C)cc(C2CCC(c3cc(Nc4ccc(S(N)(=O)=O)cc4F)n[nH]3)C2)n1` (stereo not shown) [Example 2, 4-((5-(3-(4-(tert-butyl)-6-methylpyridin-2-yl)cyclopentyl)-1H-pyrazol-3-yl)amino)-3-fluorobenzenesulfonamide], the concentration for half-maximal inhibition (IC50) at CDK2/Cyclin E1 was 5680 nM; against CDK1/Cyclin B1, greater than 10000 nM.
Consider `CC(C)(C)c1cnnc(C2CCC(c3cc(Nc4ccc(S(N)(=O)=O)cc4F)n[nH]3)C2)c1` (stereo not shown) [Example 3, 4-((5-(3-(5-(tert-butyl)pyridazin-3-yl)cyclopentyl)-1H-pyrazol-3-yl)amino)-3-fluorobenzenesulfonamide], for which the IC50 is 147 nM against CDK2/Cyclin E1 and greater than 10000 nM against CDK1/Cyclin B1.
On the same counts, the results for `CC(C)(C)c1ccnc(C2CCC(c3cc(Nc4ccc(S(N)(=O)=O)cc4F)n[nH]3)C2)n1` (stereo not shown) [Example 4, 4-((5-(3-(4-(tert-butyl)pyrimidin-2-yl)cyclopentyl)-1H-pyrazol-3-yl)amino)-3-fluorobenzenesulfonamide] are 7.1 nM and 848 nM.
On the same counts, the results for `CC(C)c1ccnc(C2CCC(c3cc(Nc4ccc(S(N)(=O)=O)cc4F)n[nH]3)C2)n1` (stereo not shown) [Example 5, 3-fluoro-4-((5-(3-(4-isopropylpyrimidin-2-yl)cyclopentyl)-1H-pyrazol-3-yl)amino)benzenesulfonamide] are 4.6 nM and 656 nM.
On to `CC(C)c1cnc(C2CCC(c3cc(Nc4ccc(S(N)(=O)=O)cc4F)n[nH]3)C2)o1` (stereo not shown) [Example 7, 3-fluoro-4-((5-(3-(5-isopropyloxazol-2-yl)cyclopentyl)-1H-pyrazol-3-yl)amino)benzenesulfonamide], for which the half-inhibitory concentration (IC50) against CDK2/Cyclin E1 is 93 nM; on CDK1/Cyclin B1, greater than 10000 nM.
